How the values were obtained:
[1] = test system: carrageenan-induced oedema; test: Carrageenan model, paw oedema (plethysmometer); assay type: in vivo, rat; details: versus vehicle control
Experimental: (§1) Male Random Hooded rats (180-220 g) were used. The test compound or vehicle was administered 30 mins before the 2nd test compound or vehicle. The test compound and vehicles used were: (i) Compound A in 1% DMSO, 66% Peg400, 33% distilled water and (ii) nabumetone in 1% DMSO, 66% Peg400, 33% distilled water. Both test compounds were administered via the oral route. After a further 30 mins 100 ul of 2% carrageenan was injected intraplantar into the left hind paw and the animals were then returned to their cages. Three hours later behavioural testing of the carrageenan-induced decrease in weight on the inflamed left hind paw (% weight on the inflammed left paw) and associated oedema was assessed. Weight bearing was measured using the dual channel weight averager and paw oedema was assessed using a plethysmometer. The dual channel weight averager is commercially available and is described in the following abstract: Validation of the dual channel weight averager as an instrument for the measurement of inflammatory pain, N. M. Clayton et al., 1997 British Journal Pharmacol. 120, 219P
(§2) Note: Oedema is the presence of abnormally large amounts of fluid in the intercellular tissue spaces of the body and in the present example is used to provide a measure of inflammation (or anti-oedemic). Allodynia is a sensation of pain resulting from a non-injurious stimulus such as normal heat, cold or pressure on skin and in the present example the weight-bearing (allodynia) effect in used to provide a measure of analgesia.
(§3) The methodology was as described for (a) above. The test compounds and vehicles used were: (i) Compound A in 1% DMSO, 66% Peg400, 33% distilled water and (ii) Compound B in 1% DMSO, 66% Peg400, 33% distilled water. Both compounds were administered via the oral route.

[2] = test system: carrageenan-induced allodynia (decrease in weight bearing on the inflamed left hind paw); test: Carrageenan model, weight bearing on inflamed left hind paw (dual channel weight averager); assay type: in vivo, rat; details: for % Weight on inflamed paw (Allodynia): Table (A), 3 h after carrageenan, 50% = no pain; for % Inhibition Allodynia: versus vehicle control
Experimental: as §1, §2, §3

[3] = Table (B), experiment (a), Compound A 0.4 mg/kg oral
[4] = Table (C), experiment (b), Compound A 0.4 mg/kg oral
[5] = Table (C), experiment (b), Compound B 3 mg/kg oral
[6] = Table (B), experiment (a), nabumetone 3 mg/kg oral

## CC(C)(C)c1nnc([C@H]2O[C@@H](n3cnc4c(Nc5ccc(Cl)cc5F)ncnc43)[C@H](O)[C@@H]2O)o1 [Compound A, (2S, 3S, 4R, 5R)-2-(5 tert-butyl-[1,3,4]oxadiazol-2-yl)-5-[6-(4-chloro-2-fluoro-phenylamino)-purin-9-yl]-tetrahydro-furan-3,4-diol]
[1]; [3]
  % Inhibition Oedema: −7.4 ± 5.7%
[1]; [4]
  % Inhibition Oedema: 24.9 ± 5.5%
[2]; Compound A 0.4 mg/kg oral
  % Weight on inflamed paw (Allodynia): 25.4 ± 2.9%
[2]; [3]
  % Inhibition Allodynia: 17.0 ± 9.6%
[2]; [4]
  % Inhibition Allodynia: 47.9 ± 11.1%

## CCOc1ccc(-c2nn3ncccc3c2-c2ccc(S(C)(=O)=O)cc2)cc1 [Compound B, 2-(4-ethoxy-phenyl)-3-(4-methanesulfonyl-phenyl)-pyrazolo[1,5-b]pyridazine]
[1]; [5]
  % Inhibition Oedema: 35.8 ± 3.6%
[2]; [5]
  % Inhibition Allodynia: 45.4 ± 8.9%

## COc1ccc2cc(CCC(C)=O)ccc2c1 [Nabumetone, nabumetone, reference compound]
[1]; [6]
  % Inhibition Oedema: −25.1 ± 4.7%
[2]; nabumetone 3 mg/kg oral
  % Weight on inflamed paw (Allodynia): 21.6 ± 3.6%
[2]; [6]
  % Inhibition Allodynia: 4.3 ± 12.2%

Source: patent US20030004128A1, “Formulatios of adenosine a1 agonists” (priority 1999, published 2003)
